Results published in ChEMBL document CHEMBL1250532, “Structure-based virtual screening of novel tubulin inhibitors and their characterization as anti-mitotic agents” (Bioorg Med Chem, 2010).
Blank lines part the entries; values can stand above or below the compound they belong to.

Experiments:
[1] = Inhibition of polymerization of tubulin by turbidimetry
[2] = test system: HL-60; test: Induction of apoptosis in human HL60 cells after 48 hrs using propidium iodide by flow cytometry; type: functional, cell-based; settings: for EC50: HL-60, 48 h
[3] = test system: HL-60; test: Induction of apoptosis in human HL60 cells assessed as fractions of fragmented DNA at 0.1 uM after 24 hrs using propidium iodide staining by flow cytometry (reference value: 0.53%); type: functional
[4] = test system: HL-60; test: Cell cycle arrest in human HL60 cells assessed as accumulation at G2/M phase at 0.1 uM after 24 hrs using propidium iodide staining by flow cytometry (reference value: 22.26%); type: functional
[5] = test system: HL-60; test: Ratio of compound EC50 to E7010 EC50 for human HL60 cells; type: functional
[6] = test system: HL-60; test: Antiproliferative activity against human HL60 cells after 48 hrs by MTT assay; type: functional, cell-based; settings: HL-60, 48 h
[7] = test system: HL-60; test: Induction of apoptosis in human HL60 cells assessed as fractions of fragmented DNA at 0.05 uM after 48 hrs using propidium iodide staining by flow cytometry (reference value: 1.66%); type: functional
[8] = test system: HL-60; test: Cell cycle arrest in human HL60 cells assessed as accumulation at S phase at 0.1 uM after 24 hrs using propidium iodide staining by flow cytometry (reference value: 17.62%); type: functional
[9] = test system: HL-60; test: Cell cycle arrest in human HL60 cells assessed as accumulation at G0/G1 phase at 0.1 uM after 24 hrs using propidium iodide staining by flow cytometry (reference value: 55.47%); type: functional
[10] = test system: HL-60; test: Induction of apoptosis in human HL60 cells assessed as fractions of fragmented DNA at 0.25 uM after 48 hrs using propidium iodide staining by flow cytometry (reference value: 1.66%); type: functional
[11] = test system: HL-60; test: Induction of apoptosis in human HL60 cells assessed as fractions of fragmented DNA at 0.1 uM after 48 hrs using propidium iodide staining by flow cytometry (reference value: 1.66%); type: functional
[12] = test system: HL-60; test: Induction of apoptosis in human HL60 cells assessed as fractions of fragmented DNA at 1 uM after 48 hrs using propidium iodide staining by flow cytometry (reference value: 1.66%); type: functional
[13] = test system: HL-60; test: Cell cycle arrest in human HL60 cells assessed as accumulation at G0/G1 phase at 0.5 uM after 24 hrs using propidium iodide staining by flow cytometry (reference value: 55.47%); type: functional
[14] = test system: HL-60; test: Induction of apoptosis in human HL60 cells assessed as fractions of fragmented DNA at 0.5 uM after 24 hrs using propidium iodide staining by flow cytometry (reference value: 0.53%); type: functional
[15] = test system: HL-60; test: Induction of apoptosis in human HL60 cells assessed as fractions of fragmented DNA at 0.5 uM after 48 hrs using propidium iodide staining by flow cytometry (reference value: 1.66%); type: functional
[16] = test system: HL-60; test: Cell cycle arrest in human HL60 cells assessed as accumulation at G2/M phase at 0.5 uM after 24 hrs using propidium iodide staining by flow cytometry (reference value: 22.26%); type: functional
[17] = test system: HL-60; test: Cell cycle arrest in human HL60 cells assessed as accumulation at S phase at 0.5 uM after 24 hrs using propidium iodide staining by flow cytometry (reference value: 17.62%); type: functional

IC50 [1]: 13.7 µM | EC50 [2]: 0.22 µM | IC50 [6]: 0.17 µM
SMILES: COc1cc(C2C=C(c3ccccc3)Nc3ncnn32)cc(OC)c1OC (configuration not stated)
Activity [2]: Dose-dependent effect | Activity [3]: 0.81% | Activity [4]: 25.82% | Ratio EC50 [5]: 2 | Activity [7]: 4.32% | Activity [8]: 15.92% | Activity [9]: 53.51% | Activity [10]: 60.88% | Activity [11]: 4.06%

IC50 [6]: 2 µM
SMILES: COc1cc(C(=O)N2CCc3ccccc32)cc(OC)c1OC

IC50 [6]: 3.2 µM
SMILES: COc1cc(C(=O)N2c3ccccc3CC2C)cc(OC)c1OC (configuration not stated)

IC50 [6]: 2 µM
SMILES: COc1cc(C(=O)N2CCCc3ccccc32)cc(OC)c1OC

IC50 [6]: 2.4 µM
SMILES: COc1cc(/C=C(/C(=O)O)c2ccc(-c3ccccc3)cc2)cc(OC)c1OC

IC50 [6]: 2.4 µM
SMILES: COc1ccc(/C=C(/C(=O)c2cc(OC)c(OC)c(OC)c2)c2nc3ccccc3o2)cc1

IC50 [1]: > 25 µM | IC50 [6]: 0.37 µM
SMILES: CCc1ccc(C2=CC(c3cc(OC)c(OC)c(OC)c3)n3ncnc3N2)cc1 (configuration not stated)

IC50 [1]: > 25 µM | IC50 [6]: 0.33 µM
SMILES: COc1cc(C2C=C(c3cccc(NC(C)=O)c3)Nc3ncnn32)cc(OC)c1OC (configuration not stated)

IC50 [6]: 2.4 µM
SMILES: COc1ccccc1NC(=O)CSc1nnc(-c2cc(OC)c(OC)c(OC)c2)n1-c1ccc(C)cc1

IC50 [1]: > 24 µM | IC50 [6]: 0.34 µM
SMILES: COc1ccc(C2=CC(c3cc(OC)c(OC)c(OC)c3)n3ncnc3N2)cc1OC (configuration not stated)

IC50 [6]: 1.7 µM
SMILES: COc1cc(C(=O)/C(=C/c2cccnc2)c2nc3ccccc3o2)cc(OC)c1OC

IC50 [1]: 12.8 µM | EC50 [2]: 0.78 µM | IC50 [6]: 0.1 µM
SMILES: COc1cc(C2C=C(c3cccs3)Nc3ncnn32)cc(OC)c1OC (configuration not stated)
Activity [12]: 85.69% | Activity [13]: 53.87% | Activity [2]: Dose-dependent effect | Activity [14]: 0.48% | Activity [15]: 10.35% | Activity [7]: 6.03% | Activity [16]: 25.93% | Activity [17]: 15.16%

IC50 [1]: > 25 µM | IC50 [6]: 0.39 µM
SMILES: COc1cc(C2C=C(c3ccc(Cl)cc3)Nc3ncnn32)cc(OC)c1OC (configuration not stated)

IC50 [1]: 20 µM | IC50 [6]: 0.6 µM
SMILES: COc1cc(C(=O)c2c(-c3ccccc3)cc3ccccn23)cc(OC)c1OC

IC50 [1]: 10.4 µM | EC50 [2]: 0.08 µM | IC50 [6]: 0.19 µM
SMILES: COc1ccc(C2=CC(c3cc(OC)c(OC)c(OC)c3)n3ncnc3N2)cc1 (configuration not stated)
Activity [2]: Dose-dependent effect | Activity [3]: 0.93% | Activity [4]: 24.39% | Ratio EC50 [5]: 2 | Activity [7]: 4.94% | Activity [8]: 18.82% | Activity [9]: 51.67% | Activity [10]: 92.36% | Activity [11]: 77.49%

IC50 [1]: 12.8 µM | EC50 [2]: 0.07 µM | IC50 [6]: 0.13 µM
SMILES: COc1cc(C2C=C(c3ccc(C)cc3)Nc3ncnn32)cc(OC)c1OC (configuration not stated)
Activity [2]: Dose-dependent effect | Activity [3]: 22.94% | Activity [4]: 48.64% | Ratio EC50 [5]: 2 | Activity [7]: 4.61% | Activity [8]: 16.5% | Activity [9]: 9.7% | Activity [10]: 90.56% | Activity [11]: 89.85%

IC50 [1]: 5 µM | IC50 [6]: 1.4 µM
SMILES: COc1cc(C(=O)c2c(C)cn3c(CCC#N)cccc23)cc(OC)c1OC

IC50 [6]: 1.7 µM
SMILES: COc1cc(/C=C(/C(=O)c2cc(OC)c(OC)c(OC)c2)c2nc3ccccc3o2)cc(OC)c1OC
